Assay results as given in US20210030719A1, “GRP94 INHIBITORS TO TREAT STEROID-INDUCED OCULAR HYPERTENSIONS AND GLAUCOMAS” (UNIVERSITY OF SOUTH FLORIDA, priority 2018, published 2021).

Tests used:
[1] = tested on: human trabecular meshwork (HTM) cells; experiment: HTM cell lysates, intracellular Collagen I and Fibronectin (Western blot); assay type: cell-based
Method: (§1) HTM Treatments: Low passage number human trabecular meshwork (HTM) cells were cultured in DMEM supplemented with 10% fetal bovine serum and 1% penicillin/streptomycin. HTM cells were treated for 10 days (replaced every 2-3 days) with 100 nM dexamethasone. HTM cells were validated by expression of myocilin under these conditions.
(§2) Western and Dot Blots: Anterior eye segments and HTM cells were lysed in RIPA buffer. HTM lysates were separated by SDS-PAGE and transferred to a PVDF membrane. Lysates and culture media for dot blots were applied to a nitrocellulose membrane. Blots were blocked in 7% non-fat milk solution. Myocilin antibody was provided by W. D. Stamer. Collagen I and Fibronectin antibodies were purchased from Santa Cruz Biotechnology. Actin antibody was purchased from Sigma Aldrich (St. Louis, Mo.). Blots were developed using species specific secondary antibodies from Southern Biotech.
(§3) Quantification and Statistical Analysis: Two-tailed student's t-test and two-way ANOVA with Bonferroni's post-hoc tests were used as detailed in the figure legends. Values were considered significant if p<0.05. Graphs were generated using GraphPad Prism 5.0 analysis software or Microsoft Excel. N-value in this study is depicted as number of animals or number of eyes where indicated. Graphs are plotted as ±SEM or % CV as indicated.

[2] = tested on: ECM components (Collagen I, Fibronectin); experiment: ECM components in lysates of anterior eye sections of SIG model mice (dot blot / Western blot); assay type: in vivo, mouse; details: dex & 4Br-BnIm treated group; overall not statistically significant
From the text: Animal Husbandry: Mice were housed and bred at the University of South Florida Byrd Alzheimer's Institute. All animal procedures performed in this study followed the ARVO Statement for the Use of Animals in Ophthalmic and Vision Research and were approved by the University of South Florida Institutional Animal Care and Use Committee. A cohort of 35 animals from separate litters were used for this study; 20 male mice (10 WT and 10 Myoc-KO) and 15 female mice (8 WT and 7 Myoc-KO). […] Technicians performing the drug delivery and tonometry measurements were blinded for animal genotype as well as each compound and the respective vehicle treatment. […] No other treatment groups or geneotypes suffered losses. One WT animal on the Dex+4Br—BnIm study began the study with only one eye. […] 4Br—BnIm treatment dose was based on previous studies. […] The drop was allowed to sit on the eye for 1 minute before the mouse was returned to its cage. One drop of 0.1% Dexamethasone eye drops (Dexamethasone Sodium Phosphate Ophthalmic Solution USP, 0.1% Dexamethasone Phosphate Equivalent; Bauch and Lomb) or PBS (vehicle) was applied to each eye. Dexamethasone treatments were conducted at 6:30 AM, 9 AM, and 2 PM, every day. […]
Quantification and Statistical Analysis: Two-tailed student's t-test and two-way ANOVA with Bonferroni's post-hoc tests were used as detailed in the figure legends. […]

[3] = tested on: mutant myocilin; experiment: Cellular studies of mutant myocilin degradation; assay type: cell-based
[4] = tested on: Wild-type (WT) mice; experiment: Mouse model of steroid-induced glaucoma, IOP by rebound tonometer, WT mice; assay type: in vivo; details: 0.1% dexamethasone topically to the eye three times per day
Method: A cohort of 35 animals from separate litters were used for this study; 20 male mice (10 WT and 10 Myoc-KO) and 15 female mice (8 WT and 7 Myoc-KO). […] Technicians performing the drug delivery and tonometry measurements were blinded for animal genotype as well as each compound and the respective vehicle treatment. […] The drop was allowed to sit on the eye for 1 minute before the mouse was returned to its cage. One drop of 0.1% Dexamethasone eye drops (Dexamethasone Sodium Phosphate Ophthalmic Solution USP, 0.1% Dexamethasone Phosphate Equivalent; Bauch and Lomb) or PBS (vehicle) was applied to each eye. Dexamethasone treatments were conducted at 6:30 AM, 9 AM, and 2 PM, every day.
IOP Measurements: IOP levels in the mouse eye were obtained using the Icare TonoLab rebound tonometer and their guidelines were followed (Icare, Finland). Measurements were taken at LOAM to control for diurnal fluctuations in IOP levels which occur throughout the day. Mice were anesthetized with 3-4% isoflurane in oxygen once a week. After mice were sufficiently anesthetized, the mice were placed in an open restraint platform and IOP measurements were taken for each eye. […]

[5] = tested on: human trabecular meshwork (HTM) cells; experiment: HTM cell culture medium, extracellular proteins (dot blot); assay type: cell-based; details: dexamethasone
Method: as §1, §2, §3

[6] = HTM cells treated with dex, 24 hours after Grp94 inhibitor treatment
[7] = HTM cells, 4Br-BnIm in the absence of dexamethasone

Row | SMILES | intracellular Collagen I levels [1, 6] | intracellular Fibronectin levels [1, 6] | Intracellular Collagen I [1, 7] | Intracellular Fibronectin [1, 7] | Collagen I in anterior eye lysates [2] | Fibronectin in anterior eye lysates [2] | effect on toxic mutant myocilin [3] | increase in IOP [4] | increase of extracellular myocilin [5]
1 | COC(=O)c1c(O)cc(O)c(Cl)c1CCc1nccn1Cc1ccc(Br)cc1 [4Br—BnIm, methyl 2-(2-(1(4-bromobenzyl)-1H-imidazol-2-yl)ethyl)-3-chloro-4,6-dihydroxybenzoate] | statistically significant decreases | statistically significant decreases | unchanged | unchanged | decrease in the mean values | decrease in the mean values | degradation of toxic mutant myocilin |  | 
2 | C[C@@H]1C[C@H]2[C@@H]3CCC4=CC(=O)C=C[C@]4(C)[C@@]3(F)[C@@H](O)C[C@]2(C)[C@@]1(O)C(=O)CO [dexamethasone] |  |  |  |  |  |  |  | roughly 33% | over 500%
